The values below come from the NIST ThermoML archive (doi:10.1016/j.fluid.2015.02.018).

The conditions of series [1]: DTA; for Normal melting temperature: Crystal.
The nature of series [2]: Molar enthalpy of transition or fusion. The following applies: Crystal; DSC.

± gives the expanded uncertainty stated by the source.

Take `OCCN1CCN(CCCN2c3ccccc3Sc3ccc(Cl)cc32)CC1` [perphenazine]: the Normal melting temperature in series [1] worked out at 93.7 ± 0.4 °C. The Glass transition temperature in series [1] (Glass) worked out at 18.7 ± 0.4 °C. Besides, in series [2], the “Molar enthalpy of transition or fusion” value was 45.3 ± 1 kJ/mol.
On to `COc1ccc2c(c1)c(CC(=O)O)c(C)n2C(=O)c1ccc(Cl)cc1`, for which the Normal melting temperature in series [1] was 160.5 ± 0.4 °C. The “Molar enthalpy of transition or fusion” value in series [2] stood at 75.4 ± 1.5 kJ/mol.
In the case of `Cn1c(=O)c2[nH]cnc2n(C)c1=O.Cn1c(=O)c2[nH]cnc2n(C)c1=O.NCCN` [aminophylline], the Normal melting temperature in series [1] is 269.1 ± 0.4 °C. Moreover, the “Molar enthalpy of transition or fusion” value in series [2] worked out at 25.9 ± 0.6 kJ/mol.
The matching figures for `CN1[C@@H](CC(=O)c2ccccc2)CCC[C@H]1C[C@H](O)c1ccccc1.Cl` [(-)-lobeline hydrochloride]: 193.2 ± 0.4 °C and 76.1 ± 1.6 kJ/mol.
